In US12398154B2, “Azaquinazoline pan-KRas inhibitors” (Mirati Therapeutics, Inc., priority 2020, dated 2025) one finds IC50 data, which are given here for four compounds.

The target in one test is KRas G12D (Homo sapiens, UniProt P01116, G12D). Nature of the test: biochemical.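 Further: TR-FRET displacement binding assay on KRas, read after a one-hour incubation at room temperature, IC50 fitted from percent-of-control values.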
In test [1] the test system is phospho-ERK in A549 (G12S) cells. Nature of the test: Inhibition of KRas-mediated phosphorylation of ERK (in-cell western). The conditions noted are these: Homo sapiens, 3 hours compound, phospho-ERK normalized to GAPDH. It counts as cell-based. In short, it runs like this: (§1)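 After a 3-hour incubation with diluted compound in 0.5% DMSO, cells are fixed, permeabilized and stained overnight at 4° C for phosphorylated ERK and GAPDH.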

The subject of test [2] is phospho-ERK in PSN-1 (G12R) cells. The description is as above. Format: cell-based. The conditions noted are these: Homo sapiens, PSN1, 3 hours compound, phospho-ERK normalized to GAPDH. In short, it runs like this:
as §1

Test [3] has as its system phospho-ERK in NCI-H358 (G12C) cells. The test is described as above. It counts as cell-based. The conditions noted are these: Homo sapiens, 3 hours compound, phospho-ERK normalized to GAPDH. The essentials:
as §1

Test [4] relates to phospho-ERK in NCI-H727 (G12V) cells. The test is described as above. Format: cell-based. The conditions noted are these: Homo sapiens, NCI-H727, 3 h, 3 hours compound, phospho-ERK normalized to GAPDH. In short, it runs like this:
as §1

In test [5] the test system is phospho-ERK in NCI-H460 (Q61H) cells. The test is described as above. The conditions noted are these: Homo sapiens, NCI-H460, 3 h, 3 hours compound, phospho-ERK normalized to GAPDH. Format: cell-based. The essentials: as §1
For test [6], the system named is phospho-ERK in HCT116 (G13D) cells. The test is described as above. Format: cell-based. To be noted: Homo sapiens, HCT-116, 3 hours compound, phospho-ERK normalized to GAPDH. In short, it runs like this:
as §1

Test [7] deals with phospho-ERK in AsPC-1 (G12D) cells. The description is as above. It counts as cell-based. To be noted: Homo sapiens, ASPC1, 3 h, 3 hours compound, phospho-ERK normalized to GAPDH. The essentials: as §1
Test [8] has as its system phospho-ERK in MKN1 (WTdep) cells. Described as above. To be noted: Homo sapiens, MKN-1, 3 hours compound, phospho-ERK normalized to GAPDH. Format: cell-based. In short, it runs like this:
as §1

Another test concerns the target KRas G12C (Homo sapiens, UniProt P01116, G12C). Nature of the test: biochemical.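 Further: binding to KRas assessed by TR-FRET displacement after one hour incubation at room temperature, potency fitted from percent-of-control values.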
The target in the next test is KRas G12S (Homo sapiens, UniProt P01116, G12S). Nature of the test: biochemical.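 Further: TR-FRET displacement binding to KRas, read after one hour incubation at room temperature, IC50 from four-parameter fit of percent of control.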
The target of a further test is KRas G12V (Homo sapiens, UniProt P01116, G12V). Nature of the test: biochemical.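 Further: KRas binding measured by TR-FRET displacement at room temperature, IC50 fitted from percent of control values.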
Another test addresses T1, KRas G13D (Homo sapiens, UniProt P01116, G13D).
T1 construct: Biotinylated KRas (corresponding to amino acids 1-169, produced at Accelegan Inc.); biotin (biotinylated); purchased Accelegan Inc
Nature of the test: KRas binding assay (TR-FRET displacement).

The target of the next test is KRas G12A (Homo sapiens, UniProt P01116, G12A). The test is described as follows: biochemical.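 Further: binding to KRas measured by TR-FRET displacement after one hour at room temperature, IC50 from a four-parameter fit of percent-of-control values.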
For another test, the target named is T2, KRas Q61H (Homo sapiens, UniProt P01116, Q61H).
T2 construct: Biotinylated KRas (corresponding to amino acids 1-169, produced at Accelegan Inc.); biotin (biotinylated); purchased Accelegan Inc
The test is described as follows: KRas binding assay (TR-FRET displacement).

Another test addresses KRas G12R (Homo sapiens, UniProt P01116, G12R). The test is described as follows: biochemical.
The target in a further test is KRas WT (Homo sapiens, UniProt P01116). Nature of the test: biochemical.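 Further: binding to KRas read as TR-FRET displacement after a one-hour room-temperature incubation, IC50 derived from percent-of-control values.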
In another test the test system is pERK in H460 cells. The test is described as follows: Inhibition of KRas phosphorylation of ERK (Cisbio HTRF pERK assay). To be noted: Homo sapiens, NCI-H460, read-out: Inhibition (HTRF IC50) of KRas-mediated Phosphorylation of ERK, H460.
A further test has as its system pERK in HCT116 cells. Described as above. To be noted: Homo sapiens, HCT-116, read-out: Inhibition (HTRF IC50) of KRas-mediated Phosphorylation of ERK, HCT116.
Another test has as its system pERK in H727 cells. The description is as above. The conditions noted are these: Homo sapiens, NCI-H727, read-out: Inhibition (HTRF IC50) of KRas-mediated Phosphorylation of ERK, H727.
For another test, the system named is pERK in ASPC1 cells. The test is described as above. The conditions noted are these: Homo sapiens, ASPC1, read-out: Inhibition (HTRF IC50) of KRas-mediated Phosphorylation of ERK, AsPC-1.

Where only a bound is given, the exact number is not on record here.

KRas G12V, sequence (P01116 1-169 isoform P01116-2 G12V): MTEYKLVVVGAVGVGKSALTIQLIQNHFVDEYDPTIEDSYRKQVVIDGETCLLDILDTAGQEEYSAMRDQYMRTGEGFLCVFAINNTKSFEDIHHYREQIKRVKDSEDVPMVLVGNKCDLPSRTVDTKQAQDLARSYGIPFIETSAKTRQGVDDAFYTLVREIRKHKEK
KRas G12D, sequence (P01116 1-169 isoform P01116-2 G12D): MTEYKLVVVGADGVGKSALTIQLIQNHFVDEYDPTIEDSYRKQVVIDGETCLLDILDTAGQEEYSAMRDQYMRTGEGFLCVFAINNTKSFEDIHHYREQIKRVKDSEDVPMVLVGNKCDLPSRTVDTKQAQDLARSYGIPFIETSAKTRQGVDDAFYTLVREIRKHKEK
KRas G12R, sequence (P01116 1-169 isoform P01116-2 G12R): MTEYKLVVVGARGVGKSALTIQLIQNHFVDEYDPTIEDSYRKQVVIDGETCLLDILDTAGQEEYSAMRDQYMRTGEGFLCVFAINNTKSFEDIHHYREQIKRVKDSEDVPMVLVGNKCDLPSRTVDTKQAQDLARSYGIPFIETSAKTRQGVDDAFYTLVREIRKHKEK
KRas WT, sequence (P01116 1-169 isoform P01116-2): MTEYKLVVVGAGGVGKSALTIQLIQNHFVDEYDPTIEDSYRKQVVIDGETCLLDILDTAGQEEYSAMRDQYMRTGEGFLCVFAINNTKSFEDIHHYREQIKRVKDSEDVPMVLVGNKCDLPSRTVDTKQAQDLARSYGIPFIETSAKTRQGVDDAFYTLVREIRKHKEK
T1 sequence (P01116 1-169 isoform P01116-2 G13D): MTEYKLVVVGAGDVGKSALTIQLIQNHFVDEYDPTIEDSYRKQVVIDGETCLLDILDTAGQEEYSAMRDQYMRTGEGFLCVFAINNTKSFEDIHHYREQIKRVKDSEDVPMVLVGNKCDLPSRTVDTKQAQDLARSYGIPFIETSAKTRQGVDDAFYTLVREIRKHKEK
KRas G12S, sequence (P01116 1-169 isoform P01116-2 G12S): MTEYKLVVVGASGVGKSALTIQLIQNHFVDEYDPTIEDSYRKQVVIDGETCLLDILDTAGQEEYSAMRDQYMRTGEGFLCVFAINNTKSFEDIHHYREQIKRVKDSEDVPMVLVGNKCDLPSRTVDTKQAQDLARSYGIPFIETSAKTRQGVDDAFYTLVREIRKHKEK
KRas G12C, sequence (P01116 1-169 isoform P01116-2 G12C): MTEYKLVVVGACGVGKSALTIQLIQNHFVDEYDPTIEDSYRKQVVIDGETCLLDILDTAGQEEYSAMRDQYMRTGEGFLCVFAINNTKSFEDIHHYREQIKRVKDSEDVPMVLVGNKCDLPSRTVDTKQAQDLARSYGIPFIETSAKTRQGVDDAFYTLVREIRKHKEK
T2 sequence (P01116 1-169 isoform P01116-2 Q61H): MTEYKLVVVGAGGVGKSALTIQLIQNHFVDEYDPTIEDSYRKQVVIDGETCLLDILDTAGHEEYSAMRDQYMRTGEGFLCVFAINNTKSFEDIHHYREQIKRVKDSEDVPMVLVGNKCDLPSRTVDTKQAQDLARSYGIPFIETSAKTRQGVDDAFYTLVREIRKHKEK
KRas G12A, sequence (P01116 1-169 isoform P01116-2 G12A): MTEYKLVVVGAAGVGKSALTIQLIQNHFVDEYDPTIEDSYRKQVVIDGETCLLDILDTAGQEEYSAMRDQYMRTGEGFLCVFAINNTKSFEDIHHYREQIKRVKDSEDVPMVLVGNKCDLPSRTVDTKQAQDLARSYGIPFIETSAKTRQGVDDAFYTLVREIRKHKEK

For the compound `CCc1c(F)ccc2cccc(-c3ncc4c(N5CCCC6(CNC(=O)C6)C5)nc(OC[C@@]56CCCN5C[C@H](F)C6)nc4c3F)c12` (stereo partly drawn) [Example 37, 7-(7-(8-ethyl-7-fluoronaphthalen-1-yl)-8-fluoro-2-(((2R,7aS)-2-fluorotetrahydro-1H-pyrrolizin-7a(5H)-yl)methoxy)pyrido[4,3-d]pyrimidin-4-yl)-2,7-diazaspiro[4.5]decan-3-one], the IC50 on KRas G12D was 41 nM; in test [1], 8950 nM; in test [2] it was at least 10000 nM; in test [3], 1720 nM; in [4], at least 10000 nM; in [5], at least 10000 nM. Also, the IC50 stood at 4360 nM in test [6]; 2210 nM in [7]; 1670 nM in [8]; 56 nM against KRas G12C; 63 nM against KRas G12S; 57 nM on KRas G12V. The IC50 is 88 nM on KRas G13D; 52 nM against KRas G12A; 88 nM on KRas Q61H; 93 nM at KRas G12R; 68 nM against KRas WT.

On to `C#Cc1c(F)ccc2cccc(-c3ncc4c(N5CCC[C@@](C)(O)C5)nc(OC[C@@]56CCCN5C[C@H](F)C6)nc4c3F)c12` [Example 51, (R)-1-(7-(8-ethynyl-7-fluoronaphthalen-1-yl)-8-fluoro-2-(((2R,7aS)-2-fluorohexahydro-1H-pyrrolizin-7a-yl)methoxy)pyrido[4,3-d]pyrimidin-4-yl)-3-methylpiperidin-3-ol], for which the 50% inhibitory concentration (IC50) on KRas G12D is 21 nM; in test [1], 2640 nM; in [2], at least 10000 nM; in [3] it was 715 nM; in [4] it was 7230 nM; in test [5], at least 10000 nM. Moreover, the IC50 in [6] was 3720 nM; in test [7], 586 nM; in [8] it was 873 nM; on KRas G12C, 35 nM; on KRas G12S it was 38 nM; at KRas G12V, 35 nM. Moreover, the IC50 on KRas G13D is 36 nM; at KRas G12A, 36 nM; at KRas Q61H, 50 nM; at KRas G12R, 69 nM; against KRas WT it was 32 nM.

`CCc1c(F)ccc2cc(O)cc(-c3ncc4c(N5CC6CC(O)CC5C6)nc(OC[C@@]56CCCN5C[C@H](F)C6)nc4c3F)c12` (stereo partly shown) [Example 58]: the half-maximal inhibitory concentration (IC50) at KRas G12D came to 6 nM; in [1], 455 nM; in [2], 1310 nM; in [3], 24 nM; in [4] it was 242 nM; in [5], 111 nM. Also, the IC50 in [6] was 1460 nM; in test [7], 24 nM; in test [8], 23 nM; on KRas G12V, at most 2 nM; in the test with pERK in H460 cells, 69 nM; on KRas G12R, at most 2 nM. The half-inhibitory concentration (IC50) in the test on pERK in HCT116 cells is 179 nM; in the test on pERK in H727 cells, 45 nM; in the test with pERK in ASPC1 cells, 75 nM.

Turning to `CCc1c(F)ccc2cc(O)cc(-c3ncc4c(N5CCCn6nc(N)cc6C5)nc(OC[C@@]56CCCN5C[C@H](F)C6)nc4c3F)c12` [Example 61, 4-(4-(2-amino-7,8-dihydro-4H-pyrazolo[1,5-a][1,4]diazepin-5 (6H)-yl)-8-fluoro-2-(((2R,7aS)-2-fluorohexahydro-1H-pyrrolizin-7a-yl)methoxy)pyrido[4,3-d]pyrimidin-7-yl)-5-ethyl-6-fluoronaphthalen-2-ol], the concentration for half-maximal inhibition (IC50) on KRas G12D is at most 2 nM; in [1] it was 699 nM; in test [2], at least 10000 nM; in [3], 162 nM; in test [4], 1110 nM; in test [5], 550 nM. The IC50 in test [6] is 518 nM; in test [7], 306 nM; in [8], 46 nM; on KRas G12V it was at most 2 nM; in the test with pERK in H460 cells, 336 nM; at KRas G12R, at most 2 nM. Further, the IC50 in the test with pERK in HCT116 cells was found to be 1640 nM; in the test on pERK in H727 cells it was 250 nM; in the test with pERK in ASPC1 cells it was 126 nM.
